Measurements: US20190282692A1, “SELECTIVE LOCAL INHIBITION OF TNFR1-MEDIATED FUNCTIONS AT THE SITE OF ANTIGEN/ALLERGEN PRESENTATION” (priority 2012, published 2019)
Values joined by “and” are separate entries in the source; they are usually repeats but may differ in a detail not shown here. Equal values may be shown once.

Legend:
TNF = type: in vivo, human; conditions: for side effects of anti-TNF treatment in the patient: one patient with ankylosing spondylitis; for development of allergen-specific sIgG4 during specific immunotherapy: one vespid venom-allergic patient, SIT 2003-2009
Excerpt: Case report from the Allergy Center of the Technical University of Munich (TUM), Germany. A patient (at the first visit in July 2003) with systemic vespid venom allergy was under anti-TNF therapy with the soluble TNF receptor etanercept (Enbrel®) for ankolysing spondylitis since July 2002 (see FIG. 9). In July/2003, the patient experienced a mild to moderate anaphylactic reaction (grade 1-2 according to Ring and Messmer) with generalized urticaria, subjective breathing problems and dizziness after a wasp sting.
No sIgE was detectable against Ves v 2 and Ves v 3.
Similar results were also obtained in the ELISA analysis, where sIgG4 levels were detectable already in 2003 before SIT mainly against Ves v 1 and Ves v 5, which decreased slightly over time during SIT.
Discussion. […] Even amongst the group of SIT therapy failures/non-responders, we routinely observed an increase of sIgG4 levels to at least one allergen. Thus, this patient was the first and only one ever without any increase in sIgG4 to any of the vespid venom allergens. […] To our knowledge this was the only patient worldwide that received immunotherapy under anti-TNF inhibition treatment. Since there are several lines of evidence that TNFR2-mediated signaling is essential for the induction of tolerance, inhibition of TNFR2 appears to be responsible for the inhibitory effect of anti-TNF-alpha therapy on the efficacy of specific immunotherapy.

TNF-alpha = target: T1, TNF-alpha (Mus musculus, UniProt P06804); conditions: without inhibiting Teff activation; cited from earlier work
T1 construct: host or cells: mouse, in vivo
T1 sequence (P06804 80-235 limits assumed): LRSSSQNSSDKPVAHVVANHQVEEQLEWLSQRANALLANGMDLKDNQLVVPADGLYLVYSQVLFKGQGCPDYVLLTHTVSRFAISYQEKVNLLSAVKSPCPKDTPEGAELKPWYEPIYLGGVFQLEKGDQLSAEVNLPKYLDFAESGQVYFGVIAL

[1] = in vivo; cited from earlier work
[2] = test system: isolated rat cardiomyocytes; conditions: cited from earlier work; for reproduction of the effects of in vivo NAC treatment (glutathione repletion, unmasking of TNFR2-mediated effects): 50 μmol/L; for protection against deleterious effects of TNF-alpha on contraction: preincubation 2-3 hours, 50 μM GSM or exogenously added NAC, cardiomyocytes from control rats
[3] = test system: TNFR1-mediated activation of NF-kappa B; conditions: cited from earlier work
[4] = test system: TNFR2-mediated activation of NF-kappa B; conditions: high concentrations; cited from earlier work
[5] = cited from earlier work
left ventricle = conditions: 3-day NAC treatment 120 mg/kg/day, 2-month post-myocardial infarction rats; cited from earlier work
resting T cells = resting T cells from seven donors, 3 day period, NAC 1 mM to 20 mM; cited from earlier work
[6] = 8 days, cited from earlier work
[7] = 1800 mg/day oral, one year, added to standard therapy; cited from earlier work
[8] = test system: T cells purified from human peripheral blood; conditions: 10 mM NAC, after two passages; cited from earlier work
[9] = test system: purified peripheral blood T cells; conditions: 20 mM NAC, Con A 10 μg/ml; cited from earlier work
[10] = test system: T cells purified from human peripheral blood; conditions: 20 mM NAC, Con A 2.5 μg/ml, 40 hours; cited from earlier work
[11] = test system: purified peripheral blood T cells; conditions: cited from earlier work
[12] = test system: purified tonsillar B cells; conditions: 20 mM NAC; cited from earlier work
[13] = test system: purified tonsillar B cells; conditions: dose-dependent, significant with 0.5 mM, maximal with 20 mM NAC, 14 days; cited from earlier work
[14] = 600 mg to 1000 mg NAC three times daily orally, 4 weeks; cited from earlier work
C3 convertase = conditions: cited from earlier work
IL-4 gene transcription = conditions: read-out: concentration for 50% inhibition of IL-4 gene transcription; cited from earlier work
NF-kappa B translocation = conditions: read-out: concentration for 50% inhibition of NF-kappa B translocation; cited from earlier work
[15] = test system: CD4+ T cells purified from human peripheral blood; conditions: cited from earlier work
[16] = cited from earlier work; remark: listed apart in the source
[17] = test system: allergen-induced airways hyper-responsiveness; conditions: cited from earlier work
[18] = test system: late phase asthmatic response to allergen challenge; conditions: cited from earlier work

etanercept
side effects of anti-TNF treatment in the patient (TNF): increasing iritis symptoms
development of allergen-specific sIgG4 during specific immunotherapy (TNF): interferes with the development of allergen-specific sIgG4
Teff-mediated Treg boost (TNF-alpha): significantly reduced the Teff-mediated Treg boost

O=C(O)c1ccccc1O [salicylate]
level at which tinnitus may occasionally occur [1]: ≥ 95 µg/mL

infliximab
side effects of anti-TNF treatment in the patient (TNF): without major side effects
development of allergen-specific sIgG4 during specific immunotherapy (TNF): interferes with the development of allergen-specific sIgG4

N[C@@H](CCC(=O)N[C@@H](CS)C(=O)NCC(=O)O)C(=O)O [GSH, glutathione]
reproduction of the effects of in vivo NAC treatment ([2]; incubation 2-3 hours, 10 mmol/L): could not reproduce the effects of in vivo NAC treatment

O=C([O-])c1ccccc1O.[Na+] [SA, sodium salicylate]
salicylate dose required for inhibition of TNFR1-mediated activation of NF-kappa B [3]: 10 to 20 mM
inhibition of TNFR2-mediated activation of NF-kappa B [4]: but not TNFR2-mediated activation of NF-kappa B

CC(=O)N[C@@H](CS)C(=O)O [NAC, N-acetyl-L-cysteine]
median tmax ([5]; human, in vivo): 1.0 h
highest non-toxic dose ([5]; in most of the subjects): 800 mg/m^2/day
plasma t1/2 ([5]; monoexponential plasma decay): 2.4 h
GSH content of the left ventricle, % of control level in sham rats (left ventricle): 75%
reproduction of the effects of in vivo NAC treatment (glutathione repletion, unmasking of TNFR2-mediated effects) ([2]; incubation 2-3 hours): could not reproduce the effects of in vivo NAC treatment
protection against deleterious effects of TNF-alpha on contraction [2]: not protected
cytotoxicity (resting T cells): nontoxic
decrease of ovalbumin-specific IgE ([6]; drinking water 0.5 g/liter NAC): ~30%
decrease of ovalbumin-specific IgG1 ([6]; drinking water 0.5 g/liter NAC): ~30%
synthesis of other Ig isotypes ([6]; drinking water 1 g NAC/liter): not significantly affected
IgE and IgG1 antibody responses to ovalbumin ([6]; water containing 0.5-2.0 g/l NAC, 1 μg ovalbumin on aluminum hydroxide i.p.): decreased
primary end points including vital capacity [7]: better
stimulation of growth of peripheral blood T cell cultures [8]: 4-6 fold
increase in T cell proliferation [9]: approximately 4 fold
enhancement of IL-2 production by T cells [10]: approximately 1.5 fold
IFNγ production by T cells ([11]; 0.5-20 mM NAC): not affected
IL-5 production by T cells ([11]; 0.5-20 mM NAC): not affected
IL-4 production by T cells ([11]; maximal at 20 mM NAC): decreased in a dose-dependent manner
IL-2 production by T cells ([11]; up to 5 mM NAC): enhanced
increase in B cell proliferation [12]: at least 5 fold
IgE production by B cells [13]: decreased
IgG4 production by B cells [13]: decreased
GSH level in blood neutrophils, airway neutrophil count and elastase activity [14]: effective in augmenting the GSH level in blood neutrophils and decreasing the airway neutrophil count and elastase activity

hC3: human complement component C3
half-life of C3 convertase (C3 convertase): 1.5 min

CC(=O)Oc1ccccc1C(=O)O [ASA, acetylsalicylic acid]
IC50 (IL-4 gene transcription): ~1000 µM
IC50 (NF-kappa B translocation): ~3000 µM
inhibition of IL-4 secretion ([15]; 1 mM ASA): 47%
production of IFNγ ([15]; ASA 0.1 mM-3 mM): did not affect
production of IL-2 ([15]; ASA 0.1 mM-3 mM): did not affect
production of IL-13 ([15]; ASA 0.1 mM-3 mM): did not affect

CSC[C@H](NC(=O)CC[C@H](N)C(=O)O)C(=O)NCC(=O)O [GSM, S-Methylglutathione]
reproduction of the effects of in vivo NAC treatment (glutathione repletion, unmasking of TNFR2-mediated effects) ([2]; incubation 2-3 hours): reproduce the effects of in vivo NAC treatment
protection against deleterious effects of TNF-alpha on contraction [2]: protected against the deleterious effects of TNF-alpha on contraction
solubility in water [16]: 2.61 g/liter and 8.1 mM

IL-4 (R121D/Y124D)
cutaneous wheal response and circulating allergen-specific IgE ([17]; subcutaneous administration for 6 weeks or more): reduced
allergen-induced airways hyper-responsiveness ([17]; subcutaneously or via nebulization): protect allergic cynomolgus monkeys from allergen-induced airways hyper-responsiveness
course of late asthmatic response after experimental allergen challenge ([18]; asthmatic patients): positively affect
adverse events ([18]; subcutaneous injection up to 30 mg for up to 13 weeks or inhalation up to 60 mg for up to 4 weeks): few adverse events
